The source of these data is patent US20180235917A1, “COMPOSITIONS, METHODS AND KITS FOR TREATMENT OF DIABETES AND/OR […]” (NuSirt Sciences, Inc., priority 2014, published 2018).

Where two headings read alike, the source gives them in different places.

Experiment [1] has as its system adipocytes (3T3-L1) and myotubes (C2C12). Briefly: Fatty acid oxidation and dose-response screening, cell type not stated. The format is cell-based, mouse. Particulars: for synergy with leucine or HMB in stimulating fatty acid oxidation: compound at its no-effect concentration with leucine 0.5 mM or HMB 5 μM.
The test system of a further experiment is C2C12 myotubes. Put plainly: Glucose utilization (extracellular acidification response to glucose) in myotubes. The format is cell-based, mouse.
In the next experiment the target is T1, Sirt3 (Mus musculus, UniProt Q8R104).
T1 construct: endogenous in cells; host or cells: 3T3-L1 adipocytes and/or C2C12 myotubes (inferred)
T1 sequence (Q8R104 1-334): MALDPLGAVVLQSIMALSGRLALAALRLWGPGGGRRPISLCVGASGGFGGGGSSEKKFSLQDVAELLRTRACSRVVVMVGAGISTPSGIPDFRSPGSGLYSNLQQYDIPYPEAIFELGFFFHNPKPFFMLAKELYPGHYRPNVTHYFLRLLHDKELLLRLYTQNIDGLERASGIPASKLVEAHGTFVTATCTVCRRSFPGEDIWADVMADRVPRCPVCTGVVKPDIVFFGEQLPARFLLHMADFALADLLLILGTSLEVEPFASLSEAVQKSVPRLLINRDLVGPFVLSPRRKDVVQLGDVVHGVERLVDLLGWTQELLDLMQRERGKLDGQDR
Put plainly: Sirt3 stimulation. The class given is cell-based. Particulars: leucine 0.5 mM, HMB 5 μM, resveratrol 200 nM.

Experiment [2] has as its system LDL receptor knockout mice. Put plainly: LDL receptor knockout mice on western diet: plasma lipids, atherosclerosis, macrophage infiltration (Example 7). The class given is in vivo, mouse. An excerpt: LDL receptor knockout (LDLRKO) mice were obtained from Jackson Laboratories (Bar Harbor, Me.), and housed in groups under room temperature in a humidity-controlled environment with a regular light and dark cycle. The mice were provided free access to an atherogenic western diet (WD) containing 0.21% cholesterol (by weight) and 40% calories from fat and water for 4 weeks prior to treatment. For treatment, the mice were given (a) the WD diet alone, (b) WD and 24 g of leucine/kg diet, (c) WD and 24 g of leucine/kg diet and 50 mg nicotinic acid/kg diet, (d) WD and 24 g of leucine/kg diet and 250 mg nicotinic acid/kg diet, or (e) WD and 1000 mg nicotinic acid/kg diet; this is approximately equivalent to a low therapeutic dose of nicotinic acid in hypercholesterolemic humans (˜1,500 mg/day). The treatments were administered for eight weeks continuously.
Blood samples of the mice in all groups were obtained from tails of the mice at following four and eight weeks of administration. The serum/plasma levels of triglyceride, total cholesterol and cholesterol esters were measured. Following treatment, food was removed for four hours and the animals were euthanized.
Blood was collected into EDTA-coated tubes to analyze plasma lipid and cholesterol profiles. Plasma total cholesterol (TC, Pointe Scientific, Canton, Mich.), free cholesterol (FC, Wako, Richmond, Va.) and triglyceride (TG, Wako, Richmond, Va.) concentrations were measured using enzymatic assays according to manufacturer's instructions. Cholesterol ester (CE) was calculated as the difference between TC and FC.
To assess atherosclerosis, the circulatory system was perfused following euthanasia with phosphate-buffered saline (PBS) before removing the heart and aorta. The upper one-third of the heart was dissected and embedded in Optimal Cutting Temperature Compound (Sakura Tissue-Tek, Torrance, Calif.), frozen, and stored at −80° C. Blocks were serially cut at 8 μm intervals and stained with hematoxylin and 0.5% Oil Red O (Sigma-Aldrich) to evaluate aortic sinus atherosclerotic intimal area. Atherosclerotic lesion area and Oil Red O positive area were quantified using Image-Pro Plus software (Media Cybernetics, Bethesda, Md.). Whole aorta (from sinotubular junction to iliac bifurcate) was dissected and fixed in 10% formalin, and the adventitia was cleaned. Aortas were opened along the longitudinal axis and pinned onto black silicon elastomer (Rubber-Cal, Santa Ana, Calif.) for the quantification of atherosclerotic lesion area. The percentage of total aortic surface covered with atherosclerotic lesions was quantified by Image-Pro Plus software (Media Cybernetics, Bethesda, Md.) and used to determine the total lesion area.
To assess macrophage infiltration, Sections of aortic sinus were immuno-stained with rat monoclonal antibody against macrophage-specific CD68 (Clone FA11, 1:75, AbD Serotec, Raleigh, N.C.) followed by staining with alkaline phosphatase-conjugated mouse anti-rat (for CD68, 1:50) secondary antibodies (Jackson ImmunoResearch laboratories, West Grove, Pa.). Control slides contain no primary antibody. The CD68-positive areas were analyzed using Image-Pro Plus software (Media Cybernetics, Bethesda, Md.).

The subject of a further experiment is Caenorhabditis elegans. Put plainly: Lifespan of C. elegans (Example 10). As to conditions: basal conditions; leucine 0.5 mM, nicotinic acid 10 nM. The format is in vivo. How it is done: Eggs were hatched on a starved plate overnight. […] All treatments were added with the indicated concentrations to E. coli the agar plates. […] The worms were maintained at 20° C. throughout the duration of the study. Worms were transferred to new plates daily to eliminate progeny. […] The study was continued until the last animal was dead. Data were analyzed via Kaplan-Meier survival curves using Prism 6 (GraphPad Software) and statistical significance was determined by the Log-rank (Mantel-Cox) test.

For experiment [3], the system named is diet-induced obesity mice. Briefly: High fat diet-induced obese, insulin resistant mice: GTT, ITT, glucose, insulin, HOMAIR, muscle Western blot (Example 12). The class given is in vivo, C57/BL6 mice. Particulars: HFD, no metformin; for glucose tolerance test (fasting and post-prandial hyperglycemia): Leu 24 g/kg diet with or without Res 12.5 mg/kg diet. For orientation: In western blotting, separated proteins are transferred to a membrane and probed.

A further experiment deals with diabetic db/db mice. As to conditions: for decrease in blood glucose over the 30 minute linear portion of the insulin tolerance test: insulin 0.75 U/kg.
Setting [4] is: high dose metformin 300 mg/kg bw.

Take `O=C(O)/C=C/c1ccc(O)c(O)c1` [Caffeic acid]: in experiment [1] (compound alone), the “concentrations that exert no effect (dose-response curves; sub-therapeutic dose)” value (“concentrations that exert no effect” below) was ≤ 1000 nM.
Take `O=C(O[C@@H]1Cc2c(O)cc(O)cc2O[C@@H]1c1cc(O)c(O)c(O)c1)c1cc(O)c(O)c(O)c1` [EGCG, epigallocatechin gallate]: the “direct stimulation of fatty acid oxidation” value in experiment [1] (compound alone) is “minimally active”. Besides, the “synergy with leucine or HMB in stimulating fatty acid oxidation” value (shortened to “synergy with leucine or HMB”) in experiment [1] is “do not detect synergistic effects”. Besides, the “increase in glucose utilization in myotubes” value in the experiment with C2C12 myotubes (extracellular acidification response to glucose, concentrations as in E26) is “no independent effect”.
Take `O=c1oc2c(O)c(O)cc3c(=O)oc4c(O)c(O)cc1c4c23` [Ellagic acid]: the “activity in dose-response curves” value in experiment [1] (even at high concentrations (50 μM)) is reported as “little activity”.
As to `CC(C)Cn1c(=O)n(C)c(=O)c2[nH]cnc21` [IBMX, 3-isobutyl-1-methylxanthine, reference compound], the “synergy with leucine or HMB” value in experiment [1] is on record as “weak but statistically significant synergy with HMB, but not leucine”.
As for `CC(C)C[C@H](N)C(=O)O` [Leucine, leucine], the “increase in insulin-stimulated glucose utilization” value in the experiment with C2C12 myotubes (C2C12 myotubes, 5 nM insulin, galegine 5 μM, leucine 0.5 mM) is listed as “no effect”. Also, the “stimulation of Sirt3” value at Sirt3 is reported as “no independent effects”. In experiment [2] (eight weeks, doses as E77), the “decrease in aortic macrophage infiltration (CD68 positive area)” value is listed as “significant independent effect”. Besides, the “decrease in atherosclerotic lesion size (lesion and lipid area)” value in experiment [2] (eight weeks, nicotinic acid 1,000 mg/kg diet, leucine 24 g/kg diet, or leucine + nicotinic acid 50 mg/kg diet, vs western diet alone) is “exerted an independent effect”. In experiment [2] (four weeks, doses as E73), the “decrease in plasma cholesterol esters” value is listed as “no independent effect”. The “decrease in plasma total cholesterol” value in experiment [2] (four weeks, western diet + nicotinic acid 1,000 mg/kg diet, leucine 24 g/kg diet, or leucine + nicotinic acid 50 or 250 mg/kg diet) is listed as “no independent effect”. Besides, the effect on lifespan entry in the experiment with Caenorhabditis elegans is given as “no independent effect”. Besides, the “glucose tolerance test (fasting and post-prandial hyperglycemia)” value in experiment [3] is “not significantly affected”; in experiment [3] (listed as leucine) it was “no independent effect”. Moreover, the insulin tolerance test result in experiment [3] (Leu 24 g/kg diet) is recorded as “no independent effect”.
As to `OC[C@@H](O)[C@@H](O[C@H]1O[C@H](CO)[C@@H](O)[C@H](O)[C@H]1O)[C@H](O)[C@@H](O)CO` [Maltitol], the “concentrations that exert no effect” value in experiment [1] (compound alone) is ≤ 100 nM. Moreover, the “synergy with leucine or HMB” value in experiment [1] was “no synergy”.
For `CN(C)C(=N)N=C(N)N` [Metformin], the “reduction of plasma insulin” value in the experiment on diabetic db/db mice (db/db mice, 2 weeks, high dose metformin 300 mg/kg bw (1.5 g/kg diet)) was determined as 27%. Further, in the experiment on diabetic db/db mice (setting [4]), the “effect on plasma glucose” value is on record as “no significant effect” and the “effects on body composition” value was “no significant effects”. Also, the plasma insulin in the experiment on diabetic db/db mice (high dose metformin 300 mg/kg bw, control 62) is on record as 45 uU/mL. Moreover, in the experiment on diabetic db/db mice (low dose (150 mg/kg) and very low dose (50 mg/kg) metformin alone), the “effects on any variable studied” value is listed as “no significant independent effects”. Moreover, the “decrease in blood glucose over the 30 minute linear portion of the insulin tolerance test” value with diabetic db/db mice (low or very low dose of metformin, alone or as blend) is on record as “minimal changes”. In addition, in the experiment with diabetic db/db mice (metformin at any dosage in the absence of HMB), the “effect on visceral fat mass” value was “not affected”. Also, the “decrease in blood glucose over the 30 minute linear portion of the insulin tolerance test” value with diabetic db/db mice (standard metformin dose (1.5 g/kg diet)) is ~60 mg/dL.
Consider `O[C@H]1[C@H](O)[C@@H](O)[C@H](O)[C@@H](O)[C@H]1O` [Myo-inositol], for which, in experiment [1], the “synergy with leucine or HMB” value is recorded as “no synergy”.
Still for that read-out and setting: the result for `OC[C@@H](O)[C@@H](O)[C@H](O)[C@@H](O)CO` [Sorbitol] reads “no synergy”.
Take `Cn1c(=O)c2[nH]cnc2n(C)c1=O` [Theophylline, reference compound]: the “concentrations that exert no effect” value in experiment [1] (compound alone) was “below 1 μM”.
Consider Fucoxanthin, for which the “concentrations that exert no effect” value in experiment [1] (compound alone) is on record as ≤ 100 nM.
